# Where two headings read alike, the source gives them in different places.
# Legend:
# [1] = cited from earlier work
# [2] = test system: 4-week differentiated ReNcell CX cells; experiment: Three-color fluorescence (FDA/PI) live, dead and apoptotic cell staining; type: cell-based, human; details: 24 h
# Experimental: (§1) The human neural progenitor ReNcell CX cell line (Merck Millipore, Watford, UK) is a neural stem cell line derived from the developing human fetal brain cortex ([…]) at 14 weeks of gestational age. The ReNcell CX cell line was expanded on laminin-coated flasks (20 μg/mL; Sigma-Aldrich, Poole, UK) in ReNcell Neural Stem Cell (NSC) Maintenance Medium (Merck Millipore, Watford, UK) containing fresh EGF (20 ng/mL; Merck Millipore, Watford, UK) and FGF-b (20 ng/mL; Merck Millipore, Watford, UK). Cultures were incubated at 37 °C in a 95% humidified atmosphere of 5% CO2. ReNcell CX neural progenitor cells were differentiated into a co-culture of neurons, astrocytes, and oligodendrocytes by replacing the complete ReNcell CX medium with EGF- and FGF-b-free medium; with the differentiation medium refreshed every 2 days throughout the 4-week differentiation period.
# (§2) A three-color fluorescence assay was performed as described by Kim et al.. Non-fluorescent fluorescein diacetate (FDA) permeates into active and intact cells and is hydrolyzed by intracellular esterases into a highly fluorescent green fluorescein when illuminated with a fluorescein isothiocyanate (FITC; blue) excitation filter set (emission wavelength […]). Propidium iodide (PI) is a nucleic acid dye that cannot permeate intact cell membranes and selectively stains the nuclei of dead cells or cells in late apoptotic stages. Stained nuclei omit red fluorescence under rhodamine (green) excitation (emission wavelength 650 nm). Live–dead cell assays followed the protocol described by Jones and Senft. The cells were observed using a Nikon TS100 inverted microscope (Nikon Europe B.V., Amstelveen, The Netherlands) with incident fluorescence optics. Images were captured at 200× magnification and digitalized with a Moticam 2300 camera (Roper Scientific Inc., Duluth, GA, USA; resolution 3 MP).
# (§3) Live/dead cell staining was analyzed quantitatively. The number of PI-stained nuclei was counted manually using the cell counting option in the ImageJ software (V2 Fiji-win64, University of Nottingham).
# [3] = as above; type: cell-based, human; details: human, 14 μM CPF, control 96.4%, p < 0.001, read-out: cell viability (live cells)
# Experimental: as §1, §2, §3
# [4] = target: T1, GluN1-1a/GluN2B NMDAR (Rattus norvegicus, UniProt P35439+Q00960); experiment: TEVC electrophysiology of Xenopus oocytes expressing GluN1-1a/GluN2B; type: cell-based
# T1 construct: expressed in transfected cells; host or cells: Xenopus laevis oocytes, injected with cRNA or plasmid DNA (pRK7 or pBluescript SK(-))
# Experimental: (§4) Ovaries of mature female Xenopus laevis were supplied by the European Xenopus Resource Centre (University of Portsmouth, Portsmouth, UK). Upon receipt, oocytes were first separated with 1 mg/mL collagenase (Type 1A from Clostridium histolyticum; Sigma, Poole, UK) in Ca^2+-free Barth’s gentamicin–theophylline–pyruvate (GTP) solution (96 mM NaCl, 2 mM KCl, 1 mM MgCl2, 5 mM HEPES, 2.5 mM pyruvic acid, 0.5 mM theophylline, 50 μg/mL gentamicin, pH 7.5) on a shaker for approximately 45 min at room temperature. Oocytes were then rinsed with Ca^2+-free GTP solution six to eight times until a clear solution was obtained and incubated in normal Barth’s GTP solution (Ca^2+-free GTP with inclusion of 1.8 mM CaCl2) at ~4 °C for at least half an hour prior to microinjection.
# (§5) Healthy oocytes at developmental stages IV and V were injected with 50 nL of cRNA (into the cytoplasm) or plasmid DNA (into the nucleus) at a concentration of ~100 ng/μL using a Nanolitre 2010 Injector (World Precision Instruments, Hitchin, UK). cRNA or DNA plasmids encoding the rat NMDAR subunits GluN1-1a and GluN2A or GluN1-1a and GluN2B were mixed at ratios of 1:1 (by weight) for injection. The cRNA was synthesized from linearized plasmid DNA (pRK7 or pBluscript SK(−)) containing the GluN-encoding genes using an Invitrogen mMessage mMachine kit (Thermo Fisher Scientific, Loughborough, UK). Injected oocytes were kept in normal Barth’s GTP solution at 19 °C for two to three days for expression of NMDAR subunits before recordings.
# (§6) TEVC electrophysiology was used to assess the direct effects of CPF on NMDARs containing GluN1-1a and GluN2A or GluN1-1a and GluN2B subunits expressed in Xenopus oocytes. Pulled borosilicate glass capillaries (GC150TF-10, Harvard Apparatus, Cambridge, UK) (resistances 0.5–2 MΩ) were filled with 3 M KCl and used to impale injected oocytes for recording. Injected oocytes were continuously perfused with Mg^2+-free Xenopus Ringer solution (95 mM NaCl, 2 mM KCl, 2 mM CaCl2, 5 mM HEPES, pH 7.5) at a flow rate of 5 mL/min, with test compounds applied using a Valvelink 8 gravity-fed perfusion system (Automate Scientific, Berkeley, CA, USA). Recordings were performed at 20–25 °C and oocytes were clamped at −75 mV holding potential in all experiments. Output current responses were transferred to a PC via an analogue-to-digital (A/D) converter (National Instruments PCI-6014, Austin, TX, USA) and recorded in WinEDR V3.2.7 software (John Dempster, Strathclyde Electrophysiology Software, Strathclyde Institute of Pharmacy and Biomedical Sciences, University of Strathclyde, Strathclyde, UK). Current changes in response to NMDA/glycine when applied with CPF were normalized to the control current without CPF.
# (§7) Results were expressed as means ± standard error of the mean (SEM). Statistical analysis was undertaken between concentrations using an independent samples Kruskal–Wallis test across cell culture conditions using IBM SPSS statistical software (version 26.0). […] EC50 and maximum response values were obtained using non-linear regression by fitting a four-parametric logistic equation to concentration–response plots in GraphPad Prism 10 (GraphPad Software Inc., La Jolla, CA, USA):(1) Y=Min+Max−Min/10^LogEC50−XS+1 where Y is the response to the agonist, X is the log10 concentration of the agonist, EC50 is the concentration of agonist that produces a half-maximum activation response, and S is the Hill slope. EC50s and maximum responses were compared for significant differences using an extra sum of squares F-test in GraphPad Prism 10.
# [5] = target: T2, GluN1-1a/GluN2A NMDAR (Rattus norvegicus, UniProt P35439+Q00959); experiment: TEVC electrophysiology of Xenopus oocytes expressing GluN1-1a/GluN2A; type: cell-based
# T2 construct: expressed in transfected cells; host or cells: Xenopus laevis oocytes, injected with cRNA or plasmid DNA (pRK7 or pBluescript SK(-))
# Experimental: as §4, §5, §6, §7
# [6] = 10 μM CPF applied directly, −75 mV
# T1 sequence (Q00960 27-1482, other chains not shown): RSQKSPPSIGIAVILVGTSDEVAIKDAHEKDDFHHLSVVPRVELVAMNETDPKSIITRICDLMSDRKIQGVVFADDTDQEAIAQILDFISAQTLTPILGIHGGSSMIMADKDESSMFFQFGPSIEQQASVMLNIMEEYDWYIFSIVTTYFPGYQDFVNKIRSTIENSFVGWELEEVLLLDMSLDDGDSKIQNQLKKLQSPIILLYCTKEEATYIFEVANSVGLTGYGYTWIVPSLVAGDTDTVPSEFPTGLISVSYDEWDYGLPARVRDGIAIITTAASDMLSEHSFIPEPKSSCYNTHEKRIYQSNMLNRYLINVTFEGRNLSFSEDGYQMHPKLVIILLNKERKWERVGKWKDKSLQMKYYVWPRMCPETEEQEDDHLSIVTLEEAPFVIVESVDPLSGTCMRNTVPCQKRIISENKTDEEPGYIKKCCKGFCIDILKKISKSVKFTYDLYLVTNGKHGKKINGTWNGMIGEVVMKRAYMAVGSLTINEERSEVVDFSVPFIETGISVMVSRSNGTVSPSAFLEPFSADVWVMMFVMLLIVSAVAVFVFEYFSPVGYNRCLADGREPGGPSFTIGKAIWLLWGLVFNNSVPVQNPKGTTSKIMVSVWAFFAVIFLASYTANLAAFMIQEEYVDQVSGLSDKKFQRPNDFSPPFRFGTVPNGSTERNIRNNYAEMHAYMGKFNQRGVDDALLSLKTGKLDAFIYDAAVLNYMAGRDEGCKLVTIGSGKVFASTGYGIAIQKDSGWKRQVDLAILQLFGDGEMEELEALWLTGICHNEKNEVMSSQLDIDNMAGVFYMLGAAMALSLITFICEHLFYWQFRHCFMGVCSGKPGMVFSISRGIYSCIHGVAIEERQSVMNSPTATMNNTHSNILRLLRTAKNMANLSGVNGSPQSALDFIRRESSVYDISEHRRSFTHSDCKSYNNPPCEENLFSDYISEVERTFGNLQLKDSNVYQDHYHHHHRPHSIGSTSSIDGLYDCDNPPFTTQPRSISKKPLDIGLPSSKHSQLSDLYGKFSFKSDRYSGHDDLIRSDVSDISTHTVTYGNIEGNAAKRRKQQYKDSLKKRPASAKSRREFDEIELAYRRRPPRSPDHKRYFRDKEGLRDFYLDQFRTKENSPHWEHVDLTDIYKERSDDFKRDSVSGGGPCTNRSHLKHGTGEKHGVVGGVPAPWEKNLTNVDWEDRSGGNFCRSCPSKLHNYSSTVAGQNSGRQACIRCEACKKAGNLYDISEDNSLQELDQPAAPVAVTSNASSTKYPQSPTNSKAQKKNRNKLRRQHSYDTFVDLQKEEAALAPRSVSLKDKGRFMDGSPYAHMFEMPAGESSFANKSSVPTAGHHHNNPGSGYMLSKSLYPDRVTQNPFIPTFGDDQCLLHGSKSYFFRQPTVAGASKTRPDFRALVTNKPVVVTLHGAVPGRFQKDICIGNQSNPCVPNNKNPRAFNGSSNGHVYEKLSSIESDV
# T2 sequence (Q00959 20-1464 limits assumed, other chains not shown): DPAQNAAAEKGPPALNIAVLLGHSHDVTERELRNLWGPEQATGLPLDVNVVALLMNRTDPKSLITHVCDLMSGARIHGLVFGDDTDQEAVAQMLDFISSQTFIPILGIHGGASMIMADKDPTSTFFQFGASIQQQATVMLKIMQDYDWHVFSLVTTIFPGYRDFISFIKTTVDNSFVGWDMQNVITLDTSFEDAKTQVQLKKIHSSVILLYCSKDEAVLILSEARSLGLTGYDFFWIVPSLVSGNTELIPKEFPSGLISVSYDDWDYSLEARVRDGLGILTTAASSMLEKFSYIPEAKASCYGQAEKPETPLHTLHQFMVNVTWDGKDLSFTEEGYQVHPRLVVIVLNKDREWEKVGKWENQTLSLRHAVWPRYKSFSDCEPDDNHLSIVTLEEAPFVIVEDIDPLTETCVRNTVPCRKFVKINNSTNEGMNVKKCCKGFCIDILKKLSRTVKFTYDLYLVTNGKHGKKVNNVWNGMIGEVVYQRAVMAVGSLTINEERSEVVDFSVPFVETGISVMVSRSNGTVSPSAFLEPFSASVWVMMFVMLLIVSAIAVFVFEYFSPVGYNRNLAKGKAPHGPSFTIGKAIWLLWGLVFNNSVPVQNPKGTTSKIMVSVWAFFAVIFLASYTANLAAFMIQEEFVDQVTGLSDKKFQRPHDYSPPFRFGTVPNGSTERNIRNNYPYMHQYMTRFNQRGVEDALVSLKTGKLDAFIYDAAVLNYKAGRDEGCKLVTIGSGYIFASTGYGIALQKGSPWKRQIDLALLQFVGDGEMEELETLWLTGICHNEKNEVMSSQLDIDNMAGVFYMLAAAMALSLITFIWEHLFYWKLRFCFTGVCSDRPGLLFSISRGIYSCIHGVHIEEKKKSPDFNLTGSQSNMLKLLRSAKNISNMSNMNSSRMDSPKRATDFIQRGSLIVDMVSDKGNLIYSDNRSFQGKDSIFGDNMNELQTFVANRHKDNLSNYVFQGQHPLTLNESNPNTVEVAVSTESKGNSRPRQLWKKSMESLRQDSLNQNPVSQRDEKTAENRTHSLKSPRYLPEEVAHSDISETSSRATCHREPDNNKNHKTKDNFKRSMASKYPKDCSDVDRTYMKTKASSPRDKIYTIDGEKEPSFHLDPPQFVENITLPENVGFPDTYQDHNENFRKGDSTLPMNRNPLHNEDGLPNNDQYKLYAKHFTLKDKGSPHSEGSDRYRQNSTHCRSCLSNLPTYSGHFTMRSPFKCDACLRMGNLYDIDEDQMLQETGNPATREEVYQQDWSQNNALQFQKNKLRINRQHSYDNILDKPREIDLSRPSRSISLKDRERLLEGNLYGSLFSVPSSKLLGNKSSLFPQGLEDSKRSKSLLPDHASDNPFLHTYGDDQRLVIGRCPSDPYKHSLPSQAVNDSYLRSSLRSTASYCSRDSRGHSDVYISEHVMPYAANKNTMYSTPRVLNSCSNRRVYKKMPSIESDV
compound,measurement,setting,value
"CCOP(=S)(OCC)Oc1nc(Cl)c(Cl)cc1Cl [CPF, O,O-diethyl O-(3,5,6-trichloropyridin-2-yl) phosphorothioate]","no observed adverse effect level (NOAEL), as concentration",[1]; conversion of 100 μg/kg/day as printed,≈ 285 nM
same,no observed adverse effect level (NOAEL),[1]; set by European Food Safety Authority,100 µg/kg/day
same,cells transitioned to apoptosis,[2]; 14 μM CPF,18.7%
same,dead cells,[2]; 14 μM CPF,3.91%
same,"viability at 24 h, 14 μM",[3],71.4%
same,EC50,[4],~0.055 µM
same,direct activation by CPF alone,[4]; [6],resulted in NMDAR-mediated currents
same,enhancement of current evoked by 100 μM NMDA,"[4]; 10 μM CPF co-applied with 100 μM NMDA, n = 5, p < 0.05",~ 8.2 fold
same,EC50,[5],~0.04 µM
same,enhancement of current evoked by 10 μM glycine,"[5]; 1 μM CPF co-applied with 10 μM glycine, n = 3, p < 0.05",~ 1.7 fold
same,direct activation by CPF alone,[5]; [6],resulted in NMDAR-mediated currents
"CC(C(O)c1ccc(O)cc1)N1CCC(Cc2ccccc2)CC1 (stereo not drawn) [IFN, ifenprodil, reference compound]",effect on CPF-induced decrease in cell viability,"[2]; 25 μM IFN co-administered with 14 μM CPF, p < 0.001",attenuated the CPF-induced decrease in ReNcell CX cell viability
same,antagonism of CPF-induced potentiation of NMDA/glycine-evoked current,"[4]; 100 μM IFN with 1 μM CPF, 10 μM NMDA, 10 μM Gly, −75 mV",completely blocked
"C[C@]12N[C@H](Cc3ccccc31)c1ccccc12 [MK-801, reference compound]",antagonism of CPF-induced potentiation of NMDA/glycine-evoked current,"[5]; 10 μM MK-801 with 1 μM CPF, 10 μM NMDA, 10 μM Gly, −75 mV",completely blocked
"CN[C@H](CC(=O)O)C(=O)O [NMDA, N-methyl-D-aspartate]",maximum response (percentage of the response to 1 mM NMDA),"[4]; 10 μM glycine, absence of CPF",103%
same,EC50,"[4]; 10 μM glycine, absence of CPF, n = 6, read-out: NMDA EC50",70 µM
same,maximum response (percentage of the response to 1 mM NMDA),"[5]; 10 μM glycine, absence of CPF",102%
same,EC50,"[5]; 10 μM glycine, absence of CPF, n = 5, read-out: NMDA EC50",57.9 µM
